This is an account of results in patent US20050069513A1, “Amphiphilic compounds for pharmaceutical or cosmetic use” (Physica S.A.R.L., priority 2001, published 2005).

The data set is described as follows: Formation of ion pair in aqueous phase: solubility / appearance of solutions. The class given is physicochemical. The conditions noted are these: acylamino acid dispersed in aqueous phase, milky white appearance. The source says:
Two aqueous solutions are used. The first contains calcitonin. Due to the fact that the calcitonin is hydrophilic, the solution is clear. […] This second solution has a milky white appearance.
The obtained complex, calcitonin oleyl methyl glycine, is therefore amphiphilic.
Two aqueous solutions are used. The first contains lidocaine dispersed in the aqueous solution. […] This second solution has a milky white appearance.
The obtained complex, lidocaine oleyl glycine, is therefore amphiphilic.
A solution of NaOH in the quantity required for causing precipitation of all of the polymyxin E by deplacement of the sulphate salt is added to a solution of polymyxin E sulphate. Polymyxin E, also known as colistin, thereby goes back to its non-salified, basic structure. The resulting solution, solution B, is thus an aqueous phase with a precipitate of polymyxin E.
The polymyxin is thus resolubilized in the form of an amphiphilic complex, polymyxin E linoleyl glycine.
Take `CCCCC/C=C\C/C=C\CCCCCCCCNCC(=O)O` [linoleyl glycine]: the solubility in water entry is recorded as “only slightly soluble in water”. To `CCCCCCCC/C=C\CCCCCCCCNCC(=O)O` [oleyl glycine] belongs “only slightly soluble in water”. Next, `CCCCCCCC/C=C\CCCCCCCCN(C)CC(=O)O` [oleyl methyl glycine]: “only slightly soluble in water”.
